Results published in the supplement of paper PMC8612539.
Values after ≈ are worked out from the molar mass of the structure shown.

Tested on: Escherichia coli
Experiment: minimum inhibitory concentration (MIC)
Procedure: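 Broth microdilution MIC (Sensititre BOPO7F bovine plate, CLSI methods) of 19 antimicrobials against field isolates of P. multocida, M. haemolytica, H. somni (deep nasopharyngeal swabs) and E. coli, Enterococcus spp. (rectal swabs) from weaned dairy heifers. Incubation 16-24 h at 35 C. MIC is the lowest concentration preventing visible growth. Values with <= or > lie at the tested range limits. Trimethoprim-sulfamethoxazole is given as the trimethoprim component of a 1:19 mixture.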

C=C[C@]1(C)C[C@@H](OC(=O)CSCCN(CC)CC)[C@]2(C)[C@H](C)CC[C@]3(CCC(=O)[C@H]32)[C@@H](C)[C@@H]1O [Tiamulin]
Conditions	minimum inhibitory concentration [µg/mL]
isolate (source animal id): 8	32 (≈ 64.8 µM)
isolate (source animal id): 9	> 32
isolate (source animal id): 10	> 32
isolate (source animal id): 11	> 32
isolate (source animal id): 12	> 32
isolate (source animal id): 13	> 32
isolate (source animal id): 14	> 32
isolate (source animal id): 15	> 32
isolate (source animal id): 16	> 32
isolate (source animal id): 98	> 32
isolate (source animal id): 99	> 32
isolate (source animal id): 100	32 (≈ 64.8 µM)
isolate (source animal id): 101	> 32
isolate (source animal id): 102	> 32
isolate (source animal id): 103	> 32
isolate (source animal id): 104	> 32
isolate (source animal id): 105	> 32
isolate (source animal id): 106	> 32
isolate (source animal id): 107	> 32
isolate (source animal id): 108	> 32
isolate (source animal id): 109	> 32
isolate (source animal id): 110	> 32
isolate (source animal id): 111	> 32
isolate (source animal id): 112	32 (≈ 64.8 µM)
isolate (source animal id): 113	> 32
isolate (source animal id): 114	> 32
isolate (source animal id): 115	> 32
isolate (source animal id): 116	32 (≈ 64.8 µM)
isolate (source animal id): 117	> 32
isolate (source animal id): 118	> 32
isolate (source animal id): 119	> 32
isolate (source animal id): 120	> 32
isolate (source animal id): 121	> 32
isolate (source animal id): 122	> 32
isolate (source animal id): 123	> 32
isolate (source animal id): 124	32 (≈ 64.8 µM)
isolate (source animal id): 125	16 (≈ 32.4 µM)
isolate (source animal id): 126	> 32
isolate (source animal id): 127	> 32
isolate (source animal id): 128	32 (≈ 64.8 µM)
isolate (source animal id): 129	32 (≈ 64.8 µM)
isolate (source animal id): 130	> 32
isolate (source animal id): 131	> 32
isolate (source animal id): 132	> 32
isolate (source animal id): 133	> 32
isolate (source animal id): 134	> 32
isolate (source animal id): 135	> 32
isolate (source animal id): 136	> 32
isolate (source animal id): 137	> 32
isolate (source animal id): 138	32 (≈ 64.8 µM)
isolate (source animal id): 139	> 32
isolate (source animal id): 140	> 32
isolate (source animal id): 141	> 32
isolate (source animal id): 142	> 32
isolate (source animal id): 143	> 32
isolate (source animal id): 144	> 32
isolate (source animal id): 145	> 32
isolate (source animal id): 146	> 32
isolate (source animal id): 147	32 (≈ 64.8 µM)
isolate (source animal id): 148	> 32
isolate (source animal id): 149	> 32
isolate (source animal id): 150	> 32
isolate (source animal id): 151	> 32
isolate (source animal id): 152	32 (≈ 64.8 µM)
isolate (source animal id): 153	> 32
isolate (source animal id): 154	> 32
isolate (source animal id): 155	32 (≈ 64.8 µM)
isolate (source animal id): 156	> 32
isolate (source animal id): 157	> 32
isolate (source animal id): 158	> 32
isolate (source animal id): 159	> 32
isolate (source animal id): 160	> 32
isolate (source animal id): 161	> 32
isolate (source animal id): 162	> 32
isolate (source animal id): 163	> 32
isolate (source animal id): 164	> 32
isolate (source animal id): 165	> 32
isolate (source animal id): 166	> 32
isolate (source animal id): 167	> 32
isolate (source animal id): 168	32 (≈ 64.8 µM)
isolate (source animal id): 169	> 32
isolate (source animal id): 170	32 (≈ 64.8 µM)
isolate (source animal id): 171	> 32
isolate (source animal id): 172	> 32
isolate (source animal id): 173	> 32
isolate (source animal id): 174	> 32
isolate (source animal id): 175	> 32
isolate (source animal id): 176	> 32
isolate (source animal id): 177	> 32
isolate (source animal id): 178	> 32
isolate (source animal id): 179	> 32
isolate (source animal id): 180	> 32
isolate (source animal id): 181	> 32
isolate (source animal id): 182	> 32
isolate (source animal id): 183	> 32
isolate (source animal id): 184	> 32
isolate (source animal id): 185	> 32
isolate (source animal id): 186	> 32
isolate (source animal id): 187	32 (≈ 64.8 µM)
isolate (source animal id): 188	> 32

CCCNC[C@]1(O)[C@H](C)O[C@@H](O[C@H]2[C@H](C)[C@@H](O[C@@H]3O[C@H](C)C[C@H](N(C)C)[C@H]3O)[C@](C)(O)C[C@@H](C)CN[C@H](C)[C@@H](O)[C@](C)(O)[C@@H](CC)OC(=O)[C@@H]2C)C[C@@]1(C)OC [Tulathromycin]
Conditions	minimum inhibitory concentration [µg/mL]
isolate (source animal id): 8	≤ 8
isolate (source animal id): 9	16 (≈ 19.8 µM)
isolate (source animal id): 10	16 (≈ 19.8 µM)
isolate (source animal id): 11	≤ 8
isolate (source animal id): 12	≤ 8
isolate (source animal id): 13	≤ 8
isolate (source animal id): 14	≤ 8
isolate (source animal id): 15	≤ 8
isolate (source animal id): 16	≤ 8
isolate (source animal id): 98	≤ 8
isolate (source animal id): 99	≤ 8
isolate (source animal id): 100	≤ 8
isolate (source animal id): 101	≤ 8
isolate (source animal id): 102	≤ 8
isolate (source animal id): 103	≤ 8
isolate (source animal id): 104	16 (≈ 19.8 µM)
isolate (source animal id): 105	≤ 8
isolate (source animal id): 106	16 (≈ 19.8 µM)
isolate (source animal id): 107	16 (≈ 19.8 µM)
isolate (source animal id): 108	16 (≈ 19.8 µM)
isolate (source animal id): 109	≤ 8
isolate (source animal id): 110	≤ 8
isolate (source animal id): 111	≤ 8
isolate (source animal id): 112	≤ 8
isolate (source animal id): 113	≤ 8
isolate (source animal id): 114	≤ 8
isolate (source animal id): 115	64 (≈ 79.4 µM)
isolate (source animal id): 116	≤ 8
isolate (source animal id): 117	16 (≈ 19.8 µM)
isolate (source animal id): 118	≤ 8
isolate (source animal id): 119	32 (≈ 39.7 µM)
isolate (source animal id): 120	≤ 8
isolate (source animal id): 121	≤ 8
isolate (source animal id): 122	≤ 8
isolate (source animal id): 123	≤ 8
isolate (source animal id): 124	16 (≈ 19.8 µM)
isolate (source animal id): 125	≤ 8
isolate (source animal id): 126	16 (≈ 19.8 µM)
isolate (source animal id): 127	16 (≈ 19.8 µM)
isolate (source animal id): 128	≤ 8
isolate (source animal id): 129	≤ 8
isolate (source animal id): 130	≤ 8
isolate (source animal id): 131	≤ 8
isolate (source animal id): 132	≤ 8
isolate (source animal id): 133	≤ 8
isolate (source animal id): 134	≤ 8
isolate (source animal id): 135	≤ 8
isolate (source animal id): 136	≤ 8
isolate (source animal id): 137	≤ 8
isolate (source animal id): 138	32 (≈ 39.7 µM)
isolate (source animal id): 139	≤ 8
isolate (source animal id): 140	≤ 8
isolate (source animal id): 141	≤ 8
isolate (source animal id): 142	≤ 8
isolate (source animal id): 143	16 (≈ 19.8 µM)
isolate (source animal id): 144	16 (≈ 19.8 µM)
isolate (source animal id): 145	16 (≈ 19.8 µM)
isolate (source animal id): 146	16 (≈ 19.8 µM)
isolate (source animal id): 147	≤ 8
isolate (source animal id): 148	≤ 8
isolate (source animal id): 149	≤ 8
isolate (source animal id): 150	≤ 8
isolate (source animal id): 151	≤ 8
isolate (source animal id): 152	≤ 8
isolate (source animal id): 153	≤ 8
isolate (source animal id): 154	≤ 8
isolate (source animal id): 155	≤ 8
isolate (source animal id): 156	≤ 8
isolate (source animal id): 157	≤ 8
isolate (source animal id): 158	≤ 8
isolate (source animal id): 159	≤ 8
isolate (source animal id): 160	≤ 8
isolate (source animal id): 161	≤ 8
isolate (source animal id): 162	≤ 8
isolate (source animal id): 163	16 (≈ 19.8 µM)
isolate (source animal id): 164	≤ 8
isolate (source animal id): 165	≤ 8
isolate (source animal id): 166	≤ 8
isolate (source animal id): 167	16 (≈ 19.8 µM)
isolate (source animal id): 168	≤ 8
isolate (source animal id): 169	≤ 8
isolate (source animal id): 170	≤ 8
isolate (source animal id): 171	≤ 8
isolate (source animal id): 172	≤ 8
isolate (source animal id): 173	≤ 8
isolate (source animal id): 174	≤ 8
isolate (source animal id): 175	16 (≈ 19.8 µM)
isolate (source animal id): 176	≤ 8
isolate (source animal id): 177	≤ 8
isolate (source animal id): 178	≤ 8
isolate (source animal id): 179	≤ 8
isolate (source animal id): 180	≤ 8
isolate (source animal id): 181	≤ 8
isolate (source animal id): 182	16 (≈ 19.8 µM)
isolate (source animal id): 183	≤ 8
isolate (source animal id): 184	≤ 8
isolate (source animal id): 185	16 (≈ 19.8 µM)
isolate (source animal id): 186	≤ 8
isolate (source animal id): 187	≤ 8
isolate (source animal id): 188	≤ 8
